Results from patent publication US12194024B2, “Pharmaceutical composition of MDM2 inhibitor and use thereof for preventing and/or treating disease” (ASCENTAGE PHARMA (SUZHOU) CO., LTD., priority 2019, dated 2025).
pIC50: −log10 of the molar value.

Legend:
[1] = system: NCI-H2122; experiment: CTG cell proliferation experiment, NSCLC; type: cell-based; conditions: Homo sapiens; NCI-H2122, STK11 and KRAS co-mutated; 72 hours
Procedure: (§1) For the combined experiment, the final volume of 2 test substances is 5 μl/well.
(§2) The nonlinear regression data analysis method of Graphpad Prism 6.0 software ([…]) is used for calculating IC50.
(§3) For the combined experiment, the average fluorescence value of the 3 repeated wells of the single drug control is normalized for calculating cell survival rate.

[2] = system: A549; experiment: CTG cell proliferation experiment, NSCLC; type: cell-based; conditions: Homo sapiens; A549, STK11 and KRAS co-mutated; 72 hours
Procedure: as §1, §2, §3

[3] = system: NCI-H460; experiment: CTG cell proliferation experiment, NSCLC; type: cell-based; conditions: Homo sapiens; NCI-H460, STK11 and KRAS co-mutated; 72 hours
Procedure: as §1, §2, §3

[4] = system: human MOLM-13 (AML) xenograft tumor; experiment: Systemic MOLM-13 AML mouse xenograft model; type: in vivo, NOD SCID mice
From the text: The comparison among three or more groups uses one-way ANOVA. If the F value has a significant difference, multiple comparisons should be carried out after the ANOVA analysis. All data analysis uses SPSS 18.0. Prism (the sixth version) is used for graphing. Attune N×T flow cytometer (Thermo Fisher Scientific Inc.) is used for analyzing tumor infiltrating lymphocytes. Data acquisition and analysis use Analyst Software 1.6.3 work station (AB sciex, Ontario, Canada). For MOLM-13 systemic model, the death date of the last mouse is used for analyzing the median total survival and generating the Kaplan-Meier curve. Logarithmic rank test and Bonferroni multiple test are used for comparing the survival curves of different treatment groups.
For systemic AML model, six- to eight-week-old female NOD SCID mice are pretreated with cyclophosphamide (150 mg/kg, intraperitoneally) continuously for two days. Then the MOLM-13 systemic AML xenograft model is established by inoculating 1×10^7 cells into the caudal vein intravenously.
For systemic AML model, the six- to eight-week-old female NOD SCID mice are pretreated with cyclophosphamide (150 mg/kg, intraperitoneally) continuously for two days. Then the MOLM-13 systemic AML xenograft model is established by inoculating 1×10^7 cells into the caudal vein intravenously. Cells grow 3 days, then are randomly divided into groups for treatment of a single drug or drugs in combination using a carrier, compound 2 (50 mg/kg, is taken orally each day for 7 days), and Aza (1.5 mg/kg, intravenous injection each day for 7 days). In the treatment process and after the treatment is completed, the mice are monitored for the occurrence of hind leg paresis (HLP) or the abdominal swelling caused by disease progression, and a body weight loss >20%.
A systemic MOLM-13 mouse xenograft model is established, and the anti-leukemia effect of compound 2 following the administration regimen of 80 mg/kg dosage, orally (po), and once every two days (q2d) is evaluated in the model (corresponding to the number 57 regimen in table 7). The experiment has two groups, and 15 animals in each group, in one group, 5 animals are used for the analysis of the proportion of CD45+ AML cells, and the remaining 10 animals are used for recording the living condition of the mice. 18 days after the cell inoculation, according to the experimental regimen, 5 animals are selected randomly from each group, bone marrow and spleen are collected, the proportion of human CD45+ AML cells in bone marrow and spleen is analyzed using flow cytometry to evaluate the disease burden of animals.
Systemic tumor model is established by inoculating MOLM-13 tumor cells through caudal vein, the administration starts on the third day after the cell inoculation, and the day of the administration is defined as the first day. Compound 2 is administered following 30 mg/kg, q2d regimens for 21 days. Azacitidine is administered following 1.5 mg/kg, qd regimens for seven days (corresponding to the number 81 regimen in table 7). […]

[5] = system: dimethylbenzanthracene-induced rat myelodysplastic syndrome (MDS); experiment: Dimethylbenzanthracene-induced rat myelodysplastic syndrome (MDS) model; type: in vivo, SD rat; conditions: p.o., q2d×21 d; for average WBCB value of bone marrow: MDS model group 16.89±2.75; for average PLT value of bone marrow: MDS model group 52±2.49
Procedure: Multiple human-derived rat MDS model is used for evaluating the in vivo anti-tumor effect of compound 2 alone.
The rat myelodysplastic syndrome (MDS) model is constructed using a chemical mutagenic agent dimethylbenzanthracene (DMBA). in the rat MDS model, the changes of myelogram and hemogram are similar to that of human myelodysplastic syndromes, and it is confirmed that it can be used for the anti-MDS effect study of drugs. DMBA is administered at 50 mg/kg, i.v. Following the once per week regimen for 4 weeks totally to establish the rat MDS model. One week after the end of DMBA administration (day 28), peripheral blood is collected from the caudal vein for routine blood test to determine whether the model is established successfully.
The animals are randomly divided into groups according to the PLT level on day 28, wherein a vehicle control group (Vehicle), two dosage groups of compound 2 (10 mg/kg) and compound 2 (30 mg/kg) (corresponding to the number 23 regimen in table 3), and healthy control group (naive) are totally set, each group has 5 animals.
Compound 2 is administered following 10 mg/kg or 30 mg/kg, p.o., q2d×21 d regimens. After the administration, the peripheral blood and bone marrow cells from each group of animals for routine blood analysis.

[6] = 80 mg/kg, p.o., q2d × 3 w, versus vehicle
[7] = 80 mg/kg, po, q2d, 18 days after cell inoculation

## CCN1[C@@H](C(=O)NC23CCC(C(=O)O)(CC2)CC3)[C@H](c2cccc(Cl)c2F)[C@]2(C(=O)Nc3cc(Cl)ccc32)C12CCCCC2 [Compound 2]
[1]
  pIC50: 7.10
[2]
  pIC50: 7.48
[3]
  pIC50: 6.48
[4]; 80 mg/kg, p.o., q2d × 3 w, vehicle 18.5 days
  Median survival: 37.0 days
[4]; [6]
  Prolonged days of survival: 18.5 days
  prolongation of median survival: 100%
[4]; [7]
  proportion of human CD45+ AML cells in bone marrow: less than 0.1%
  proportion of human CD45+ AML cells in spleen: less than 0.1%
[4]; Compound 2 30 mg/kg q2d 21 days, Azacitidine 1.5 mg/kg qd seven days, vehicle 16 days
  Median survival: 24 days
[4]; Compound 2 30 mg/kg q2d 21 days, Azacitidine 1.5 mg/kg qd seven days, versus vehicle
  Prolonged survival: 8 days
[4]; compound 2 alone, human MOLM-13 systemic xenograft
  minimum effective dosage: 20 mg/kg
[5]; 10 mg/kg
  average WBCB value of bone marrow: 47.5±10.13 cells/μl
  average PLT value of bone marrow: 116±9.35 cells/μl
[5]; 30 mg/kg
  average WBCB value of bone marrow: 62.53±13.08 cells/μl
  average PLT value of bone marrow: 124.2±23.8 cells/μl
